Source: patent US12428433B2, “Fluorine-containing heterocyclic derivatives with macrocyclic structure and use thereof” (ScinnoHub Pharmaceutical Co., Ltd, priority 2019, dated 2025)
Where two headings read alike, the source gives them in different places.

What was measured:
TRKa = TRKa (Homo sapiens (Human), UniProt P04629); experiment: Kinase inhibitory activity (Caliper mobility shift), TRKa; assay type: biochemical
Procedure: (§1) […] (Shanghai) Co., Ltd. was commissioned to complete the testing example. […] 3.1 A tested compound was accurately weighed and dissolved in 100% DMSO to prepare into a 10 mM solution. […] 3.2.3 A kinase solution of 2.5 times final concentration was prepared with 1×kinase buffer. […] 3.2.5 The reaction plate was shaken and mixed evenly, and then incubated at room temperature for 10 minutes. 3.2.6 Mixed solutions of ATP and kinase substrate 22 of 5 times and 3 times final concentrations were prepared with 1×kinase buffer. 3.2.7 15 μL of mixed solution of ATP and substrate of 5 times or 3 times final concentration was added. 3.2.8 The 384-well plate was centrifuged at 1,000 rpm for 30 seconds, shaken and mixed evenly, and then incubated at room temperature for corresponding time. 3.2.9 The kinase reaction was terminated. 3.2.10 A conversion rate was read by the microplate reader Caliper EZ Reader. Calculation Formula Inhibition rate %=(conversion rate % maximum-conversion rate % sample)/(conversion rate % maximum-conversion rate % minimum)×100 wherein the conversion rate % sample was: a reading number of a conversion rate of a sample; the conversion rate % minimum was: an average value of the negative control well, which represented a reading number of a conversion rate without an enzyme activity well; and the conversion rate % maximum was: an average value of a ratio of the positive control well, which represented a reading number of a conversion rate without a compound inhibition well.

TRKA(G595R) = TRKA(G595R) (Homo sapiens (Human), UniProt P04629, G595R); experiment: Kinase inhibitory activity (Caliper mobility shift), TRKA(G595R); assay type: biochemical
Chain of TRKA(G595R) (P04629 33-796 G595R): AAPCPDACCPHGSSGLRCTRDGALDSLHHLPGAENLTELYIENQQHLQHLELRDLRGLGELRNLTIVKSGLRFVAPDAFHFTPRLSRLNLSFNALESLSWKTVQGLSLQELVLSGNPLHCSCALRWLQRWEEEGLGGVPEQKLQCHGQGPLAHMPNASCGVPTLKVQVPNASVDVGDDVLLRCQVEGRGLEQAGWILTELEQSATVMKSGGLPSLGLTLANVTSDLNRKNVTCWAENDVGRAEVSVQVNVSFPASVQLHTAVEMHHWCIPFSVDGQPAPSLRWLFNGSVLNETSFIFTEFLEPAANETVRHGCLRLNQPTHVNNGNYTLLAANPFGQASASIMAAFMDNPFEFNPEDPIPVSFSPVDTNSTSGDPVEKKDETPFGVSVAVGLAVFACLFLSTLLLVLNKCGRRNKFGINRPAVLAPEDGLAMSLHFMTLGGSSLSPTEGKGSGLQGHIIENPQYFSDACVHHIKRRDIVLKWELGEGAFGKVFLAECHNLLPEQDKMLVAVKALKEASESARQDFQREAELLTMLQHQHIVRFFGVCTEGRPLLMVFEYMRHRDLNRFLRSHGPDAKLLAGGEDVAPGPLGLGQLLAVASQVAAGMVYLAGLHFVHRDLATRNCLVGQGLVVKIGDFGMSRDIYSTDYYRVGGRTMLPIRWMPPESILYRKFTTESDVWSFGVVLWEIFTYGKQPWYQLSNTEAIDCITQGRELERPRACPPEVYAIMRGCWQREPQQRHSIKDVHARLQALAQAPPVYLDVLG
Procedure: as §1

TRKC(G623R) = TRKC(G623R) (Homo sapiens (Human), UniProt Q16288, G623R); experiment: Kinase inhibitory activity (Caliper mobility shift), TRKC(G623R); assay type: biochemical
Chain of TRKC(G623R) (Q16288 32-839 G623R): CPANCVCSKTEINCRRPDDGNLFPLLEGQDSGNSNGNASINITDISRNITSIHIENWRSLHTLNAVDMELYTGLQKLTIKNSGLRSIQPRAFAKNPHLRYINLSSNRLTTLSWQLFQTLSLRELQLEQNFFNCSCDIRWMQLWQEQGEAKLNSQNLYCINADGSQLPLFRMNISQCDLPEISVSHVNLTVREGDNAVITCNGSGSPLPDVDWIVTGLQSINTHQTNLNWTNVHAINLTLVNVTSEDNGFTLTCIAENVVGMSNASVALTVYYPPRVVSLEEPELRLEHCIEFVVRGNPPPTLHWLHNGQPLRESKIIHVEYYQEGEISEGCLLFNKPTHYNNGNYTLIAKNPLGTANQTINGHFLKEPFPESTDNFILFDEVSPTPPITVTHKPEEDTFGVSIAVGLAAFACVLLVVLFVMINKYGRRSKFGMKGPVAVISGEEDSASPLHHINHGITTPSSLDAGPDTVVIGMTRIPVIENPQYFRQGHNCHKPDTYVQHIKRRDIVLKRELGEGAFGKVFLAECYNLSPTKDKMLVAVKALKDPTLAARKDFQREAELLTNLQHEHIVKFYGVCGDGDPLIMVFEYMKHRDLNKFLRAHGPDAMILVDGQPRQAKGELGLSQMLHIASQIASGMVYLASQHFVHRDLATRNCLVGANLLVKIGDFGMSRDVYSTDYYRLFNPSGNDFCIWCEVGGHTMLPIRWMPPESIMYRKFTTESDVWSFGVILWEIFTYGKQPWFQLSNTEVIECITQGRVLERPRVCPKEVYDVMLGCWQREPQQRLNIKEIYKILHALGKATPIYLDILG
Procedure: Sundia Meditech (Shanghai) Co., Ltd. was commissioned to complete the testing example.
3.1 A tested compound was accurately weighed and dissolved in 100% DMSO to prepare into a 10 mM solution.
250 nL of the compound of 100 times final concentration was transferred to a reaction plate OptiPlate-384F by a dispenser Echo 550.
3.2.3 A kinase solution of 2.5 times final concentration was prepared with 1×kinase buffer.
3.2.4 10 μL of kinase solution of 2.5 times final concentration was added into a compound well and a positive control well respectively; and 10 μL of 1×kinase buffer was added into a negative control well.
3.2.5 The reaction plate was shaken and mixed evenly, and then incubated at room temperature for 10 minutes.
3.2.6 Mixed solutions of ATP and kinase substrate 22 of 5 times and 3 times final concentrations were prepared with 1×kinase buffer.
3.2.7 15 μL of mixed solution of ATP and substrate of 5 times or 3 times final concentration was added.
3.2.8 The 384-well plate was centrifuged at 1,000 rpm for 30 seconds, shaken and mixed evenly, and then incubated at room temperature for corresponding time.
3.2.9 The kinase reaction was terminated.
3.2.10 A conversion rate was read by the microplate reader Caliper EZ Reader.
Calculation Formula Inhibition rate %=(conversion rate % maximum−conversion rate % sample)/(conversion rate % maximum−conversion rate % minimum)×100
wherein the conversion rate % sample was: a reading number of a conversion rate of a sample; the conversion rate % minimum was: an average value of the negative control well, which represented a reading number of a conversion rate without an enzyme activity well; and the conversion rate % maximum was: an average value of a ratio of the positive control well, which represented a reading number of a conversion rate without a compound inhibition well.
Fitting of dose-effect curve: a log value of concentration was used as an X axis, a percentage inhibition rate was used as a Y axis, and the dose-effect curve was fitted by a log (inhibitor) vs. response-variable slope of the analysis software GraphPad Prism 5 (four-parameter model fitting), so as to obtain an IC50 value of each compound on enzyme activity.

Ba/F3 EVT6-NTRK3-G623R = experiment: In-vitro cell viability (CTG), NTRK mutant cells; assay type: cell-based; details: Mus musculus, read-out: Ba/F3 EVT6-NTRK3-G623R IC50
Procedure: (§2) Hefei Precedo Biomedical Technology Co., Ltd. was commissioned to complete the testing example, and NTRK mutant cells used were constructed by this company.
(§3) Inhibitory effects of the compound of the present application on growth of three NTRK mutant cells (Ba/F3 LMNA-NTRK1-G667C, Ba/F3 EVT6-NTRK3-G623R and Ba/F3 LMNA-NTRK1-G595R) were measured.
(§4) Cells in logarithmic growth phase were collected and counted by a blood platelet counter, a cell concentration was adjusted to 3 to 6×10^4 cell/mL, 90 μL of cell suspension was added into a 96-well plate, and cells in the 96-well plate were cultured at 37° C. under 5% CO2 and 95% humidity overnight.
(§5) The to-be-tested compound was prepared into a 10 times drug solution in a medium containing 1% DMSO, with […] and the drug solution was diluted by 3 times in sequence to obtain drug solutions with 9 concentrations in total. […] 10 μL of prepared drug solution was added into each well of the 96-well plate in which the cells were inoculated. Then, 90 μL of medium containing 1% DMSO was added to obtain a drug solution with a highest concentration of 1 μM, and the drug solution was diluted by 3 times in sequence to obtain drug solutions with 9 concentrations in total. A final concentration of DMSO in each well was 0.1%, and three multiple wells were provided for the drug of each concentration. The cells in the 96-well plate in which the drug has been added were cultured at 37° C. under 5% CO2 and 95% humidity for 72 hours, and then subjected to CTG analysis.
(§6) An equal volume of CTG solution was added into each well, the 96-well plate was placed at room temperature for 20 minutes to stabilize a luminescence signal, and a luminescence value was read.
(§7) Data was analyzed by GraphPad Prism 7.0 software, and fitted by nonlinear S-curve regression to obtain a dose-effect curve, from which an IC50 value was calculated. Cell survival rate (%)=(Lum to-be-tested drug−Lum medium control)/(Lum cell control−Lum medium control)×100%.

Ba/F3 LMNA-NTRK1-G595R = experiment: In-vitro cell viability (CTG), NTRK mutant cells; assay type: cell-based; details: Mus musculus, read-out: Ba/F3 LMNA-NTRK1-G595R IC50
Procedure: as §2, §3, §4, §5, §6, §7

Ba/F3 LMNA-NTRK1-G667C = experiment: In-vitro cell viability (CTG), NTRK mutant cells; assay type: cell-based; details: Mus musculus, read-out: Ba/F3 LMNA-NTRK1-G667C IC50
Procedure: as §2, §3, §4, §5, §6, §7

[1] = Stability test in liver microsomes, human; assay type: in vitro ADME; details: for half-life at 1 μM: 0.5 mg/mL
Procedure: (§8) A stability of the compound of the present application in liver microsomes of human, rat and mouse was measured.
(§9) 3.1 A buffer and a liver microsome were prepared into an incubation solution according to the following table:
(§10) 3.2 The following two experiments were carried out respectively: a) incubation system added with coenzyme factor NADPH: 25 μL of NADPH (10 mM) was added into an incubation solution (mainly comprising a liver microsome and a phosphate buffer), so that final concentrations of the liver microsome and the NADPH were 0.5 mg/mL and […] respectively; and b) incubation system without coenzyme factor NADPH: 25 μL of phosphate buffer (100 mM) was added into the incubation solution, so that the final concentration of the liver microsome was 0.5 mg/mL. The incubation systems above were preheated at 37° C. for 10 minutes respectively.
(§11) 3.3 2.5 μL of positive control compound or a tested compound solution (100 μM) was added into the incubation systems described in “step 3.2” above respectively for reaction, and the positive control compound was verapamil (purchased from Sigma), so that a final concentration of the tested compound of the present application or the positive control compound was 1 μM. The incubation solution added with the compound was incubated in water at 37° C. in batches.
(§12) 3.4 30 μL of aliquot was taken from a reaction solution after 0.5 minute, 5 minutes, 15 minutes, 30 minutes and 45 minutes respectively, and the reaction was terminated by adding 5 times volume of cold acetonitrile containing 200 nM caffeine and 100 nM tolbutamide. The aliquot was centrifuged at a gravity acceleration of 3,220 g for 40 minutes, and 100 μL of supernatant was mixed with 100 μL of ultrapure water, and then used for LC-MS/MS analysis.
(§13) A peak area was determined by an extracted ion chromatogram. A slope value k was determined by linear regression of a remaining percentage of a parent drug relative to […] an incubation time curve.
(§14) In-vitro half-life periods (t1/2) were respectively calculated and determined according to the slope value, and an average value of the in-vitro half-life periods was converted into an in-vitro intrinsic clearance rate (CLint, represented by μL/min/mg protein).

[2] = Stability test in liver microsomes, rat; assay type: in vitro ADME; details: for half-life at 1 μM: 0.5 mg/mL
Procedure: as §8, §9, §10, §11, §12, §13, §14

[3] = Stability test in liver microsomes, mouse; assay type: in vitro ADME; details: for half-life at 1 μM: 0.5 mg/mL
Procedure: as §8, §9, §10, §11, §12, §13, §14

Chain of TRKa (P04629 33-796): as the sequence (P04629 33-796 G595R) above, with R563G counted along it

Row | SMILES | IC50 (TRKa) [nM] | IC50 (TRKA(G595R)) [nM] | IC50 (TRKC(G623R)) [nM] | IC50 (Ba/F3 EVT6-NTRK3-G623R; BaF3, 72 h) [nM] | IC50 (Ba/F3 LMNA-NTRK1-G595R; BaF3, 72 h) [nM] | IC50 (Ba/F3 LMNA-NTRK1-G667C; BaF3, 72 h) [nM] | microsomal CLint at 1 μM [1] [µL/min/mg] | half-life at 1 μM [1] [min] | % Remaining(45 min) [1] [%] | microsomal CLint at 1 μM [2] [µL/min/mg] | half-life at 1 μM [2] [min] | % Remaining(45 min) [2] [%] | microsomal CLint at 1 μM [3] [µL/min/mg] | half-life at 1 μM [3] [min] | % Remaining(45 min) [3] [%] | IC50 (Ba/F3 EVT6-NTRK3-G623R; BaF3, 72 hours, CTG) [nM] | IC50 (Ba/F3 LMNA-NTRK1-G595R; BaF3, 72 hours, CTG) [nM] | IC50 (Ba/F3 LMNA-NTRK1-G667C; BaF3, 72 hours, CTG) [nM] | CLint [1] [µL/min/mg]
1 | C[C@@H]1CCc2ncc(F)cc2[C@H]2CCCN2c2nc3c(cnn3cc2F)C(=O)N1 [Example 1] | 0.62 | 2.5 | 3.7 | 190 | 13 | 5.9 | 170 | 8.17 | 4.24 | 189 | 7.35 | 3.30 | 82.7 | 16.8 | 16.15 | – | – | – | –
2 | C[C@H]1Nc2ccn3ncc(c3n2)C(=O)N[C@H]2C[C@H](C2)Oc2ncccc21 [Example 4, (3^1S,3^3S,6^3E,6^4E,8R)-8-methyl-2-oxo-4,7-diaza-6(3,5)-pyrazolo[1,5-a]pyrimidine-1(2,3)-pyridine-3(1,3)-cyclobutylcyclooctane-5-one] | 320 | > 1000 | > 1000 | – | – | – | – | – | – | – | – | – | – | – | – | > 1000 | > 1000 | > 1000 | –
3 | C[C@H]1Nc2nc3c(cnn3cc2F)C(=O)NC2CC(C2)Oc2ncccc21 [Example 5, (3^1S,3^3S,6^3E,6^4E,8R)-6^6-fluoro-8-methyl-2-oxo-4,7-diaza-6(3,5)-pyrazolo[1,5-a]pyrimidine-1(2,3)-pyridine-3(1,3)-cyclobutylcyclooctane-5-one] | 127 | 561 | > 1000 | – | – | – | – | – | – | – | – | – | – | – | – | > 1000 | > 1000 | > 1000 | –
4 | C[C@H]1Nc2ccn3nc(F)c(c3n2)C(=O)N[C@H]2C[C@H](C2)Oc2ncc(F)cc21 [Example 6, (3^1S,3^3S,6^3Z,6^4E,8R)-1^5,6^2-difluoro-8-methyl-2-oxo-4,7-diaza-6(3,5)-pyrazolo[1,5-a]pyrimidine-1(2,3)-pyridine-3(1,3)-cyclobutylcyclooctane-5-one] | 0.52 | 2.9 | 8.2 | – | – | – | – | – | – | – | – | – | – | – | – | 536 | 116 | 40 | –
5 | C[C@@H]1CCc2ncc(F)cc2[C@H]2CCCN2c2ccn3ncc(c3n2)C(=O)N1 [LOXO-195, reference compound] | – | – | – | – | – | – | – | 16.8 | 16.23 | 152 | 9.12 | 4.88 | 186 | 7.45 | 1.98 | 145 | 12 | 6.3 | 82.65
